Literature values, collected in patent US20190231802A1, “CHEMOTHERAPEUTIC-RELEASING IMPLANTABLE STICK, METHODS OF MANUFACTURE AND PRECURSOR MATERIALS” (The Johns Hopkins University, priority 2016, published 2019).

System: selected cancer cell lines
Conditions: compared to paclitaxel, topotecan, CPT-11, docetaxel, carboplatin and temozolomide; previous study [8]

For `COc1cccc2c1C(=O)c1c(O)c3c(c(O)c1C2=O)C[C@@](O)(C(=O)CO)C[C@@H]3O[C@H]1C[C@H](N)[C@H](O)[C@H](C)O1` [Doxorubicin], the IC50 is listed as “relatively low IC50”.
